Laboratory results reported in ChEMBL document CHEMBL1201862, “PubChem BioAssay data set” (2004).
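In this assay, cells in 96-well plates receive the compound at five concentrations for 48 hours. Endpoints are linearly interpolated between the surrounding concentrations. GI50 is the concentration that inhibits growth by half.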 The source made the active and inactive calls. No stated cut-off is given here; in the data, active = GI50 up to about 1.1 µM and inactive = higher.

Experiments:
Experiment in all cases: inhibition of tumour cell growth, NCI panel, 48 h
SF-268 = test system: SF-268
EKVX = test system: EKVX
NCI-H23 = test system: NCI-H23
SNB-19 = test system: SNB-19
TK-10 = test system: TK-10
UACC-257 = test system: UACC-257
SK-MEL-28 = test system: SK-MEL-28
A549 = test system: A549
UACC-62 = test system: UACC-62
HOP-62 = test system: HOP-62
MOLT-4 = test system: MOLT-4
SF-295 = test system: SF-295
A498 = test system: A498
CAKI-1 = test system: CAKI-1
HCT-116 = test system: HCT-116
MDA-MB-231 = test system: MDA-MB-231
PC-3 = test system: PC-3
ACHN = test system: ACHN
KM12 = test system: KM12
K562 = test system: K562

Measured: GI50

CCOC(=O)c1cc(-c2ccn(C(C)=O)c2)c(-c2cc(C)co2)[nH]1
inactive: SF-268 > 100 µM | EKVX > 100 µM | NCI-H23 > 100 µM | SNB-19 > 100 µM | TK-10 > 100 µM | UACC-257 > 100 µM | SK-MEL-28 > 100 µM | A549 > 100 µM | UACC-62 > 100 µM | HOP-62 > 100 µM | MOLT-4 > 100 µM | SF-295 > 100 µM | A498 > 100 µM | CAKI-1 > 100 µM | HCT-116 > 100 µM | MDA-MB-231 > 100 µM | PC-3 > 100 µM | ACHN > 100 µM | KM12 > 100 µM | K562 > 100 µM

CSC1=NC(C(N)=O)C(N)N1C (stereo not given)
inactive: SF-268 > 100 µM | EKVX > 100 µM | NCI-H23 > 100 µM | SNB-19 > 100 µM | TK-10 > 100 µM | UACC-257 > 100 µM | SK-MEL-28 > 100 µM | A549 > 100 µM | UACC-62 > 100 µM | HOP-62 > 100 µM | MOLT-4 > 100 µM | SF-295 > 100 µM | A498 > 100 µM | CAKI-1 > 100 µM | HCT-116 > 100 µM | MDA-MB-231 38.6 µM | PC-3 > 100 µM | ACHN > 100 µM | KM12 > 100 µM | K562 > 100 µM

Cc1c(CN2CCN(C)CC2)c(CN2CCN(C)CC2)c(C)n1-c1ccc(Cl)cc1
inactive: SF-268 44.4 µM | EKVX 72.4 µM | NCI-H23 54.2 µM | SNB-19 > 100 µM | TK-10 17.5 µM | UACC-257 14.2 µM | SK-MEL-28 19.5 µM | A549 30.4 µM | UACC-62 16.7 µM | HOP-62 35.4 µM | MOLT-4 30.3 µM | SF-295 21.2 µM | A498 13.6 µM | CAKI-1 25.1 µM | HCT-116 27.7 µM | MDA-MB-231 68.5 µM | PC-3 29.4 µM | ACHN 96.8 µM | KM12 34 µM | K562 23.4 µM

O=C(O)c1cc2ccccc2oc1=O [COUMARIN-3-CARBOXYLIC ACID]
inactive: SF-268 > 100 µM | EKVX > 100 µM | NCI-H23 > 100 µM | SNB-19 > 100 µM | TK-10 > 100 µM | UACC-257 > 100 µM | SK-MEL-28 > 100 µM | A549 > 100 µM | UACC-62 > 100 µM | HOP-62 > 100 µM | MOLT-4 > 100 µM | SF-295 > 100 µM | A498 > 100 µM | CAKI-1 > 100 µM | HCT-116 > 100 µM | MDA-MB-231 > 100 µM | PC-3 > 100 µM | ACHN > 100 µM | KM12 > 100 µM | K562 > 100 µM
